These results are taken from patent US12527830B2, “Method for treating and preventing ulcerative colitis and method for DAI reduction” (BEIJING WEHAND-BIO PHARMACEUTICAL CO., LTD, priority 2022, dated 2026).

The test system of the assay is UC model mice. The assay is described as follows: 3% DSS-induced ulcerative colitis model in mice: colon length, body weight, Disease Activity Index (DAI). The format is in vivo. Conditions: positive drug group, 500 mg/kg/d by gavage, 3% DSS mice. On the procedure: Mice aged 6-8 weeks were adaptively kept in an animal house for 3 days. After weighing, they were randomly divided into 8 groups (counted as Day 0), with 5-6 mice in each group. Experimental grouping was as follows: group 1, normal control; group 2, model; group 3, positive control; and groups 4-8, SZ-A with different administration doses, respectively. 3% DSS was formulated as follows: 3 g of DSS (Dextran Sulfate Sodium Salt) was dissolved in 100 mL of sterile water; The mulberry twig extract as prepared in Preparative Example 1 was formulated at different concentrations and dissolved in 1% CMC solution; Drug as positive control: Sulfasalazine Enteric-Coated Tablets (NMPN H31020557). On the day when grouping was done, the mice in group 8, SZ-A-5 (pretreatment) group, were administered with a mulberry twig extract by oral gavage (see the following table for dosages) once a day. All groups are normally available to food and water. […] After 5 days from the start of modelling, the access to 3% DSS was stopped, and all groups had normal drinking water instead, with the administration done normally. The mice were administered continuously and observed for 10 days, and euthanized by cervical dislocation. The colons of the mice were removed by dissection, and the lengths of the colons were measured and photographed. During the administration, the weights of the mice in each group were measured. During the modelling and administration, stool texture and blood in stool of the mice were monitored daily, and Disease Activity Index, DAI, for the mice was scored according to Table 2 below. [table] [table] • Note: DAI=Score for Weight Loss+Score for Stool Texture+Score for Fecal Occult Blood; Normal Stool: Shaped Stool; Mushy Stool: Pasty, Semi-Shaped Stool without Adhering to Anus; Liquid Stool: Thin, Watery Stool that may Adhere to Anus. Disease Activity Index (DAI) scores for mice were compared using the mulberry twig extracts in each preparative example with reference to the experimental steps in sections 1.1-1.3 above. […]

With `O=C(O)c1cc(N=Nc2ccc(S(=O)(=O)Nc3ccccn3)cc2)ccc1O` [positive drug, 5-[p-(2-pyridylsulfamoyl)phenylazo]salicylic acid], the “inhibition of colonic atrophy (colon length) compared with model group” value (FIG. 1-2) was “significantly inhibited colonic atrophy”. In addition, where the note is “FIG. 3”, the “inhibition of weight loss compared with model group” value was “inhibit weight loss”. For the same compound, the “reduction of Disease Activity Index, DAI, compared with model group” value (FIG. 4) is listed as “reduce Disease Activity Index”.
